Reference: ChEMBL document CHEMBL1201862, “PubChem BioAssay data set” (2004)
Activity calls are given as the source filed them.

How the values were obtained:
cells = assay type: functional, cell-based
[1] = target: Tyrosine-protein kinase Blk (Homo sapiens, UniProt P51451); assay type: functional;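 note: obtained as one member of a kinome-wide kinase assay panel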
[2] = target: Serine/threonine-protein kinase TBK1 (Homo sapiens, UniProt Q9UHD2); assay: Navigating the Kinome. Panel member name: TBK1; assay type: functional
Sequence of Serine/threonine-protein kinase TBK1 (Q9UHD2 whole entry): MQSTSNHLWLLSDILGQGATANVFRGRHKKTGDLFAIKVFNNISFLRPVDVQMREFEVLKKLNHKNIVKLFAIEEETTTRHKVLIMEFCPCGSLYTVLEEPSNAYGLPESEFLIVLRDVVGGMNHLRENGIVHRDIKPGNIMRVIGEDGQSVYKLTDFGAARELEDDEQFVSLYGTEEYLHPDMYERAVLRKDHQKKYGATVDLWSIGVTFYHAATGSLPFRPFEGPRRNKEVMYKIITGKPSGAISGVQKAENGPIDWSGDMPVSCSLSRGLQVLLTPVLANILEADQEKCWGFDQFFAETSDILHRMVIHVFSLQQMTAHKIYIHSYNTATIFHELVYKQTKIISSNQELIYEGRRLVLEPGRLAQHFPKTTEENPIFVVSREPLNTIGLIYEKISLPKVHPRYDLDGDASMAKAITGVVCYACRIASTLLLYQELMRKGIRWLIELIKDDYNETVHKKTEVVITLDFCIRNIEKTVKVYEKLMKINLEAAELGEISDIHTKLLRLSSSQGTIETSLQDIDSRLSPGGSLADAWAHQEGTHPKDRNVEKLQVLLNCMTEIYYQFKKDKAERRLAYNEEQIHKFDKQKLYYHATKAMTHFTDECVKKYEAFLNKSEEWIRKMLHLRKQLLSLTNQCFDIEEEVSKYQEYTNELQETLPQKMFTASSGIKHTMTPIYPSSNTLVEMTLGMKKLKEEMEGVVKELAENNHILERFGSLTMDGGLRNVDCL

[3] = target: cAMP-dependent protein kinase catalytic subunit PRKX (Homo sapiens, UniProt P51817); assay type: functional
Sequence of cAMP-dependent protein kinase catalytic subunit PRKX (P51817 whole entry): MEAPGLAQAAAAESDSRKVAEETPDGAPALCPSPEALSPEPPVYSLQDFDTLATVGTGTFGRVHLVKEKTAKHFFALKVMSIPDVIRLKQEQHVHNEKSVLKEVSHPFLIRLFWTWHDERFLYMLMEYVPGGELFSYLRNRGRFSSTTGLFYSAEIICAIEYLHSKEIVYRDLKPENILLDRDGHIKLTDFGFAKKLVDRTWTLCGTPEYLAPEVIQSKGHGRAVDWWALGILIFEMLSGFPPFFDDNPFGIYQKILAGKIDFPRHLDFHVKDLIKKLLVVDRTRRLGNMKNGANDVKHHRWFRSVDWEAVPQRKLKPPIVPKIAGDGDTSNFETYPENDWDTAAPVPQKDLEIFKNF

[4] = target: Serine/threonine-protein kinase N2 (Homo sapiens, UniProt Q16513); assay type: functional
Sequence of Serine/threonine-protein kinase N2 (Q16513 whole entry): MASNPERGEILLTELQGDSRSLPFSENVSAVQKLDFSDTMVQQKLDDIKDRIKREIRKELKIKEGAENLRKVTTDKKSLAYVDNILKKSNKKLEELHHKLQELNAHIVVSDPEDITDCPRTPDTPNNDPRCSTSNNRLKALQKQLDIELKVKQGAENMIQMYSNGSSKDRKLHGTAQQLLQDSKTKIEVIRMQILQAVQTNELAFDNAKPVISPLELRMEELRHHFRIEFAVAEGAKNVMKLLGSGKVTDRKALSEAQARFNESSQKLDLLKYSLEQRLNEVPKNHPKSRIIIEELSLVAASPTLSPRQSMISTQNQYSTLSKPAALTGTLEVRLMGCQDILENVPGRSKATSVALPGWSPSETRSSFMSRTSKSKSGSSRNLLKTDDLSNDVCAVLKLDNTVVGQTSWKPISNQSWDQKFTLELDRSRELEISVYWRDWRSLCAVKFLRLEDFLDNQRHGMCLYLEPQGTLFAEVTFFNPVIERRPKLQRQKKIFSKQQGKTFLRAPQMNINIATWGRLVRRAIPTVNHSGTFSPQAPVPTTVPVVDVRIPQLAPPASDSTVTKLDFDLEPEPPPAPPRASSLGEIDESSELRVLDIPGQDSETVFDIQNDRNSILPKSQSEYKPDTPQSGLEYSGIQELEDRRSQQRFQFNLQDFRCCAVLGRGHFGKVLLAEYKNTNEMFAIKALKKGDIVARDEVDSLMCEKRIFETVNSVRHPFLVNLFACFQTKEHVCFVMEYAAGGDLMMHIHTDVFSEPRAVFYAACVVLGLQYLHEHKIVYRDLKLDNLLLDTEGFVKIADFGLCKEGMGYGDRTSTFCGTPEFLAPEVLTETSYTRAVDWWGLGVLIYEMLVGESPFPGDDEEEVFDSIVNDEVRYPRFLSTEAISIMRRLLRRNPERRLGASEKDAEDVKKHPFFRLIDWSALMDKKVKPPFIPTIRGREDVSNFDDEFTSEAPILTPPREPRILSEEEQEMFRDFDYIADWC

[5] = target: Fibroblast growth factor receptor 3 (Homo sapiens, UniProt P22607); assay type: functional
Sequence of Fibroblast growth factor receptor 3 (P22607 whole entry): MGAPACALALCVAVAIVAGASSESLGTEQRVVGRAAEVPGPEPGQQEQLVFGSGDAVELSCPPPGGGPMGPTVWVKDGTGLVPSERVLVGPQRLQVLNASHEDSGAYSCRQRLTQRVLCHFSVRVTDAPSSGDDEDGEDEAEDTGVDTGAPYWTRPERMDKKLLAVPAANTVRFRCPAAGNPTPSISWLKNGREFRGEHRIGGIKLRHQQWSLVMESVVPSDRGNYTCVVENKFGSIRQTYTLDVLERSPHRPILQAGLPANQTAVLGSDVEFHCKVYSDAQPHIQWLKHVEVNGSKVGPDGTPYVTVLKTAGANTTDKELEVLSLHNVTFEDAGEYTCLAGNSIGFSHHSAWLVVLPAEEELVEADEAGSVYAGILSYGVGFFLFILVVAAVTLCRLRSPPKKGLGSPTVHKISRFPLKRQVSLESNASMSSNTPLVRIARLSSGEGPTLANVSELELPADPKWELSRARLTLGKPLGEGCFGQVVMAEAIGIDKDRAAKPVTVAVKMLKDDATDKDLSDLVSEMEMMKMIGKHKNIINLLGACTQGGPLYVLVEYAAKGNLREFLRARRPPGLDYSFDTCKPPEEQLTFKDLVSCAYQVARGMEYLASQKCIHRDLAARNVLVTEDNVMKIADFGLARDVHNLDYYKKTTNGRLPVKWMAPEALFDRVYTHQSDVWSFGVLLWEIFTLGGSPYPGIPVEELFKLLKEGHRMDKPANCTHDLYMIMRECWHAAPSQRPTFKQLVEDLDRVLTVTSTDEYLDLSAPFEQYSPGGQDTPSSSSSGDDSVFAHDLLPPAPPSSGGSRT

[6] = target: Tyrosine-protein kinase Srms (Homo sapiens, UniProt Q9H3Y6); assay type: functional;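 note: SRMS measured as one member of a kinome-wide kinase profiling panel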
Sequence of Tyrosine-protein kinase Srms (Q9H3Y6 whole entry): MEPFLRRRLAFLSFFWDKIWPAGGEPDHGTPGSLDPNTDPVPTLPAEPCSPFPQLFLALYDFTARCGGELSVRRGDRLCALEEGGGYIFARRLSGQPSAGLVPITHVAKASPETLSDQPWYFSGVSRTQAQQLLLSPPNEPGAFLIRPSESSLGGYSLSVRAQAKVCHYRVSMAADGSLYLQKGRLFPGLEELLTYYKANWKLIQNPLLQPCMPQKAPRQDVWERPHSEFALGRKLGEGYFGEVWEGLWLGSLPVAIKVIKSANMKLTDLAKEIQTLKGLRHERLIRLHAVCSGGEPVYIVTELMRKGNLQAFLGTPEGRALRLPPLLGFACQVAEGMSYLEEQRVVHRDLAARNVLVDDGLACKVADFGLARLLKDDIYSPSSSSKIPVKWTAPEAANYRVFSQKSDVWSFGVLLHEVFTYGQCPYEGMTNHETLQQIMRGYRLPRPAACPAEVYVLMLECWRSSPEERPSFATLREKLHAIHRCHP

[7] = target: MAP kinase-activated protein kinase 3 (Homo sapiens, UniProt Q16644); assay type: functional;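 note: value comes from a kinome-wide profiling panel in which MAPKAPK3 is one of the panel members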
Sequence of MAP kinase-activated protein kinase 3 (Q16644 whole entry): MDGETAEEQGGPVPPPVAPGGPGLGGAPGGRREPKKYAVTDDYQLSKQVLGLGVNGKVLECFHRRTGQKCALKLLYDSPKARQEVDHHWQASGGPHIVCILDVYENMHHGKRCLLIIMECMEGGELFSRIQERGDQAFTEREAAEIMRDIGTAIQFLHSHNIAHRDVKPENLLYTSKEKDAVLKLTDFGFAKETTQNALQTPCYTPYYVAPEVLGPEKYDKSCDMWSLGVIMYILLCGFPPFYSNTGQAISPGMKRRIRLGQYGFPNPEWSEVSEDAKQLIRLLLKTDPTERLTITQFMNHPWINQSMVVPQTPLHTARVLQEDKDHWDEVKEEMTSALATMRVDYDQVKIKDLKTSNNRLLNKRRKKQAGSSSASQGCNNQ
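Throughout, for EC50: proteasome chymotrypsin-like activity measured in U2OS cells; potency is for inhibition of proteasome activity.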

Sequence of Tyrosine-protein kinase Blk (P51451 whole entry): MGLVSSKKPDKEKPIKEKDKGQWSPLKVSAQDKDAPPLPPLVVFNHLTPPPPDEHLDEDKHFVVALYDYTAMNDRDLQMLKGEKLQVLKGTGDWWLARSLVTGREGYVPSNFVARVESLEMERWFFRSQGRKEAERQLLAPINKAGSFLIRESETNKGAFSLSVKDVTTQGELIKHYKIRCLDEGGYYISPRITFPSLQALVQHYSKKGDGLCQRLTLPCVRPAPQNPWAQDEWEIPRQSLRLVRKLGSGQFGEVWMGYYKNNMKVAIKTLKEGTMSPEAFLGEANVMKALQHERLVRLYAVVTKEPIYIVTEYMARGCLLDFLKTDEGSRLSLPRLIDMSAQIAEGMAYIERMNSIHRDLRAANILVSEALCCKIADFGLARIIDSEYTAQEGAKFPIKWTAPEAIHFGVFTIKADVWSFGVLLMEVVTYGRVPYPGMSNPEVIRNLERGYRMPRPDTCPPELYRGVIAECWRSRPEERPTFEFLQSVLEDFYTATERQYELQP

Ki [1] | Ki [2] | Ki [3] | Ki [4] | Ki [5] | Ki [6] | Ki [7] | Compound | EC50 (cells)
 |  |  |  |  |  |  | CCOC(=O)c1c(NS(=O)(=O)c2ccccc2)n(CCCOC)c2nc3ccccc3nc12 | > 350 µM (not active)
> 794 nM (inactive) | > 3.16 µM (inactive) | 398 nM (active) | 12.6 nM (active) | > 2 µM (inactive) | > 1.58 µM (inactive) | > 10 µM (inactive) | OC1CCC(Nc2cc(Cl)nc(-c3c[nH]c4ncccc34)n2)CC1 (stereo not drawn) | 
